# Measured values taken from a melting point compilation (Tetko et al.; mined from patent text by program, amines drawn as free bases though some values may be those of a salt).
row,Compound,melting point [°C]
1,CCOCCNC(=O)c1ccc(-c2ccc(C(CC3CCOCC3)c3ccc(S(=O)(=O)C4CC4)cc3)[nH]2)nc1 (stereo not given),87 to 90
2,CC(C)NC(=O)c1ccc(-c2ccc3nnn(Cc4ccc5ncccc5c4)c3n2)cc1,181 to 183
3,CC(=O)c1cc(S(=O)(=O)c2ccccc2)ccc1OC[C@@H]1CO1,112 to 114
4,FC(F)(F)c1ccc(-c2cc(Oc3cccc4sccc34)ncn2)cc1,122
5,CC(=O)c1cccc(Cl)c1C(=O)O,128 to 129
6,NC1=NN(c2cccc(F)c2)CC1,146 to 147
7,NC(=O)C(Br)c1c(Cl)cc([N+](=O)[O-])cc1Cl (stereo not given),195 to 197
8,COc1ccc(C(=O)C#CCO)cc1,84 to 85
9,CCOC(=O)c1nn(-c2cccc(C)c2)c(=O)c2c(N)scc12,190 to 191
10,CC1CCCN(Cc2cccc(OCCCCNc3nnc(N)s3)c2)C1 (stereo not given),123 to 124
11,CC1(C)C(C)(C)C1(Cl)c1ccccn1,100 to 102
12,O=c1c(-c2ccccc2)c(Cn2cnc3c(Cl)ncnc32)oc2ccc(Br)cc12,234 to 236
13,COC(=O)c1ccc(NC(C)=O)c(I)c1,140 to 141
14,Cc1cc(C2(C(F)(F)F)CC2(C#N)C#N)ccc1NC(=O)c1cccc(I)c1C(=O)NC(C)C (stereo not given),218 to 221
15,Cn1cc(-c2cc3cccnc3[nH]2)c2ccc(C(=O)NCCC(N)=O)cc21,277 to 280
16,COc1ccc2c(c1)nc1snc(C(=O)c3ncc(C)c(OC)c3C)n12,170 to 171
17,COc1ccc2c(c1F)CSCC2=O,85 to 92
18,O=C1C2CCCCC2C(=O)N1c1ccc(Br)cc1F (stereo not given),90 to 92
19,O=C(O)CCCCCCCCc1ccco1,31 to 32
20,Cc1cn(C)c2c1N(C(=O)CCN1CCN(C)CC1)c1ccccc1NC2=O,187
21,Nc1cc(-n2cc(C(=O)O)c(=O)c3cc(F)c(N4CC(N)C4)c(Cl)c32)cnc1Cl,280
22,FC(F)(F)c1ccc2sc(=Nc3ccccc3)sc2c1,122 to 123
23,CCCCCc1c(C(C)O)nc(C(C)C)c(CO)c1-c1ccc(F)cc1 (stereo not given),125 to 127
24,CCc1ccc(C2COc3c(C)c(C)c(N)c(C)c32)cc1 (stereo not given),88 to 89
25,COC(=O)C(Oc1cc(OCc2ccsc2)cc(F)c1C#N)c1ccccc1Cl (racemic),143 to 144

row,Compound,melting point [°C]
1,C#CCOc1ccc(C2=NC3=CCNC(=O)C3=N2)c(OC)c1,178 to 180
2,CC(C)Cn1c(CN2C(=O)c3ccccc3C2=O)c(-c2ccc(F)cc2)c2cc(OCc3ccccc3)ccc2c1=O,198 to 199
3,CCOC12CCC(=O)CC13CCN(C)C2Cc1ccc(OC)cc13 (stereo not given),171 to 173
4,CCOC(=O)C1(S(=O)(=O)c2ccc(OCc3ccccc3)cc2)CCN(Cc2ccccc2)CC1,89
5,N#Cc1ccccc1NC(=O)c1ccc(-n2nc(C(F)(F)F)cc2C(F)(F)F)cc1,203 to 205
6,CC(=O)NNC(=S)N1N=C(c2ccc([N+](=O)[O-])cc2)c2cc3c(cc2CC1C)OCO3 (stereo not given),118
7,O=C(NCC1Cc2cc(Cl)cc(-c3ccsc3)c2O1)OCc1ccccc1 (stereo not given),90 to 92
8,CCCCc1nc2cnc3ccccc3c2n1CCCCSc1ccc(F)cc1F,122 to 126
9,COc1ccccc1C1C(C#N)=C(C(C)C)Nc2n[nH]cc21 (stereo not given),> 250
10,CCOC(=O)c1cn(-c2nc(N)c(F)cc2F)c2c(Cl)c(NCC(O)COC3CNC3)c(F)cc2c1=O (stereo not given),148 to 152
11,CCOC(=O)c1cc(=O)c2ccc(O)cc2o1,221 to 223
12,CCCCCNc1nc(SC)nc2c(C)n[nH]c12,88 to 90
13,CC12CC(F)C3c4ccc(O)cc4CC(CCCCCBr)C3C1CCC2=O (stereo not given),178
14,CC(C)(C)N1CC2(CCNCC2)OC1=O,108 to 111
15,c1ccc(-c2nc3ncccc3[nH]2)nc1,139 to 142
16,CCN1CCN(CC)C2SC(=C(C(=O)OC(C)C)C(=O)OC(C)C)SC21 (stereo not given),84 to 86
17,Cc1cc2c(c3c1CCC3)OC(CNC(=O)OCc1ccccc1)C2 (stereo not given),109 to 113
18,Nc1cc(OCc2ccccc2)c(C(=O)NC2CN3CCC2CC3)cc1Cl (stereo not given),170 to 171
19,O=C(O)CCCc1ccc(NS(=O)(=O)c2cccc(Cl)c2)cn1,141 to 142
20,OCc1ccc2ccn(C3CCN(CCc4ccccc4F)CC3)c2c1,117 to 118
21,COc1ccc(-c2ccc(C(=O)Nc3ccc4cc(CN5CCCC5)cnc4c3C)cn2)cc1,180 to 182
22,S=C(Nc1ccc(Cl)c(Cl)c1)NC1CCCCC1,159 to 162
23,CC(C)(c1ccc(C(C)(C)c2ccc3ccccc3c2O)cc1)c1ccc2ccccc2c1O,245 to 255
24,CC(=O)n1nc(C)c2ccc(F)cc21,89 to 91
25,COc1ccc(C(=O)N2CCC(N3C(=O)Cc4ccccc43)CC2)c(OC)c1,88 to 93
